The values that follow come from paper PMC7300299, “Anticholinergic Drugs Interact With Neuroprotective Chaperone L-PGDS and Modulate Cytotoxicity of Aβ Amyloids” (Frontiers in Pharmacology, 2020).

This assay addresses T1, human lipocalin-type prostaglandin D synthase (L-PGDS), wild type (Homo sapiens, UniProt P41222).
T1 construct: gene PTGDS; recombinant wild type, pNIC-CH vector, E. coli Rosetta 2 (DE3), Superdex 75 purified
T1 sequence (P41222 23-190): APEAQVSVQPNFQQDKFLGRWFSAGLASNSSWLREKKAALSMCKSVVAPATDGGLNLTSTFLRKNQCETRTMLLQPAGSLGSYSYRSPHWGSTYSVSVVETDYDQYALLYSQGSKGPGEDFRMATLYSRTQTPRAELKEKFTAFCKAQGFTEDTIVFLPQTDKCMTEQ
Kind of assay: ITC (reverse titration, L-PGDS into drug). The settings on record: read-out: Binding affinities and thermodynamic parameters / Kd^a. The source says: ITC (reverse titration, L-PGDS into drug) on human lipocalin-type prostaglandin D synthase (L-PGDS), wild type

Molecules are shown by their SMILES.

As to `CN(C)CCC(c1ccc(Cl)cc1)c1ccccn1` (centres unmarked) [CPM, Chlorpheniramine], the Kd was 5.7 ± 0.2 µM.
On to `O=c1n(CCCN2CCN(c3cccc(Cl)c3)CC2)nc2ccccn12` [TRD, Trazodone], for which the Kd was 6.5 ± 0.2 µM.
